Results: article PMC3909880 (Nature communications, 2013)

Test system: M. tuberculosis IAR2 mutant (mmpL3 S288T)
Format: cell-based, Mycobacterium tuberculosis

Compound	MIC for IAR2 [µg/mL]	Fold change in MIC for IAR2
NCC[C@H](O)C(=O)N[C@@H]1C[C@H](N)[C@@H](O[C@H]2O[C@H](CN)[C@@H](O)[C@H](O)[C@H]2O)[C@H](O)[C@H]1O[C@H]1O[C@H](CO)[C@@H](O)[C@H](N)[C@H]1O [Amikacin]	1	–
CC[C@@H](CO)NCCN[C@@H](CC)CO [Ethambutol]	1	–
NNC(=O)c1ccncc1 [Isoniazid]	0.04	–
NC[C@H]1O[C@H](O[C@H]2[C@H](O)[C@@H](O[C@H]3O[C@H](CO)[C@@H](O)[C@H](N)[C@H]3O)[C@H](N)C[C@@H]2N)[C@H](O)[C@@H](O)[C@@H]1O [Kanamycin]	2	–
C[C@H]1COc2c(N3CCN(C)CC3)c(F)cc3c(=O)c(C(=O)O)cn1c23 [Levofloxacin]	0.25	–
CO[C@H]1/C=C/O[C@@]2(C)Oc3c(C)c(O)c4c(O)c(c(/C=N/N5CCN(C)CC5)c(O)c4c3C2=O)NC(=O)/C(C)=C\C=C\[C@H](C)[C@H](O)[C@@H](C)[C@@H](O)[C@@H](C)[C@H](OC(C)=O)[C@@H]1C [Rifampin]	0.03125	0.25
CC(C)=CCC/C(C)=C/CNCCNC1C2CC3CC(C2)CC1C3 (stereo not shown) [SQ109]	4	16
Capreomycin	1	–
